Results reported in US6653333B2, “Remedies or preventives for digestive diseases containing diaminotrifluoromethylpyridine derivatives” (Ishihara Sangyo Kaisha, Ltd., priority 2000, dated 2003).

How the values were obtained:
[1] = test system: rat sodium dextran sulfate (DSS) induced ulcerative colitis model; test: rat sodium dextran sulfate (DSS) induced ulcerative colitis model; type: in vivo; conditions: DSS rats
Text: As an ulcerative colitis model, trinitrobenzenesulfonic acid (TNB) is usually used, but as a drug effect evaluation system to accomplish the present invention, a rat sodium dextran sulfate (DSS) induced ulcerative colitis model was used. It has been well known that said model is considered as an experimental model similar to human ulcerative colitis from many viewpoints such as inhibision of weight gain, presence or absence of bloody stool, symptoms of e.g. anemia and formation of erosion at the large intestine, and no formation of lesion in the small intestine [FOLIA PHARMACOLOGICA JAPONICA vol. 105, p. 145-152(1995)]. A therapeutic effect of N-(2-ethylsulfonylamino-5-trifluoromethyl-3-pyridyl)cyclohexanecarboxamide sodium salt monohydrate (hereinafter referred to as compound 1) over the test system was examined.
The compound 1 was used as a drug formulation. The formulation composition (content per one vial) was as follows.
A 3% aqueous solution of sodium dextran sulfate (DSS: manufactured by Wako Pure Chemical Industries, Ltd.) was put in a drinking bottle, and rats [Crj: CD(SD), male, Charles River Japan, 7 weeks old when subjected to the test] were made to drink the solution freely for 11 days to cause colitis. After eleven days, rats which satisfied selection standards (among rats which discharged bloody stool continuously for at least two days including the selection day, ones having a weight loss at the selection day of less than 20 g as compared with the weight on the previous day and having a hemoglobin concentration of at least 12 g/dl) were selected, and divided into groups (ten rats/group) so that there would be no difference in the average weight among groups.
With respect to a non-treated group and groups treated with the compound 1, the 3% aqueous solution was changed to a 1% DSS aqueous solution at the day of division, and the rats were made to drink the solution freely for 14 days. Further, to the rats in the groups treated with the compound 1, the compound 1 was perorally administered once a day for 14 days from the day of division by means of a peroral sonde (dosage: 10 ml/kg). To the rats in the non-treated group and a normal group, distilled water for injection (manufactured by Otsuka Pharmaceutical Co., Ltd.) alone was perorally administered similarly. Here, the normal group rats were made to drink distilled water for injection freely instead of the DSS aqueous solution from initiation of the test to the day of anatomy.
A 10 mg/ml aqueous solution of the compound 1 was prepared by using distilled water for injection (manufactured by Otsuka Pharmaceutical Co., Ltd.) and administered to the rats in a desired dosage.
Immediately after collection of blood, the large intestine (colon and rectum) was excised, and its length was measured by means of a ruler in a sufficiently relaxed state.
Immediately after the measurement, a fixing liquid was injected into the intestine, and the intestine was temporarily fixed for at least 1 hour in such a state that the lumen was approximately uniformly expanded. Then, the intestinal canal was dissected along the mesenterium adhered portion, and the intestine was completely fixed in an expanded state in a 10% neutral buffering formalin aqueous solution for at least one week. The intestine was washed with running water for about 5 minutes, and further washed with purified water three times, and then immersed in a 3% aqueous acetic acid solution for about 5 minutes as a pretreatment. Then, the intestine was immersed in a 1% Alcian blue (manufactured by Nacalai Tesque) (dissolved in a 3% aqueous acetic acid solution) and dyed for about 20 minutes, and then washed with a 3% aqueous acetic acid solution from 4 to 5 times until elution of Alcian blue disappeared. […]

[2] = test system: TNBS induced rat Crohn's disease model; test: Trinitrobenzene Sulfonic Acid (TNBS) induced rat Crohn's disease model; type: in vivo; conditions: TNBS rats
Experimental: The therapeutic effect of the compound 1 on TNBS induced rat Crohn's disease model was studied by the following method.
(1) SD male rats (12 weeks old) were anesthetized with Nembutal and their abdomen was opened up, a TNBS solution (TNBS 160 mg/ml ethanol) was administered in 1 ml/kg in the colon located 10 cm below the ileocecum, and their abdomen was closed to prepare models, which were divided into a non-treated group and a group treated with the compound 1, each group consisting of 6 rats. No such a treatment was carried out for normal group rats. After preparation of the models, a drug formulation of the compound 1 of Test Example 1 diluted with distilled water was perorally administered to rats of the group treated with the compound 1 once a day for 7 days in a dosage of 10 mg/kg/day as calculated as anhydride of the compound 1. After completion of administration period, visual change, small intestine weight and mucosal myeloperoxidase activity in small intestine (mucosal MPO activity) were observed or measured. The visual change was evaluated by digitizing and compiling various changes. The ratio of the small intestine weight to the body weight was also calculated from the small intestine weight and the body weight.

Question: What does the source list for CCS(=O)(=O)Nc1ncc(C(F)(F)F)cc1NC(=O)C1CCCCC1.O.[Na] [compound 1, N-(2-ethylsulfonylamino-5-trifluoromethyl-3-pyridyl)cyclohexanecarboxamide sodium salt monohydrate]?
Answer: Erosion suppression rate (large intestine erosion area vs non-treated group) ([1]; 1 mg/kg/day perorally once a day for 14 days): 45%; Erosion suppression rate (large intestine erosion area vs non-treated group) ([1]; 10 mg/kg/day perorally once a day for 14 days): 56%; Erosion suppression rate (large intestine erosion area vs non-treated group) ([1]; 100 mg/kg/day perorally once a day for 14 days): 62%; Anemia as a result of melena due to the erosion ([1]; peroral 14 days): decreases anemia; Histopathological study: inflammation at the submucosa in the erosion formed region ([1]; peroral 14 days): remarkable decrease of inflammation at the submucosa; Histopathological study: mucosal tissue reconstruction ([1]; peroral 14 days): normal tissue reconstruction by regeneration of the mucosa took place; Length of large intestine: intestine wall hyperplasia ([1]; peroral 14 days): decreases intestine wall hyperplasia; Inflammatory reaction and tissue impairment in the small intestine ([2]; 10 mg/kg/day perorally for 7 days): the inflammatory reaction and tissue impairment in the small intestine were decreased; Ratio of small intestine to body weight (Mean) ([2]; 10 mg/kg/day perorally once a day for 7 days, non-treated 0.0065, normal 0.0030): 0.0042; Small intestine weight (Mean) ([2]; 10 mg/kg/day perorally once a day for 7 days, non-treated 2.18, normal 1.11): 1.63; Visual score (Mean) ([2]; 10 mg/kg/day perorally once a day for 7 days, non-treated 7.8, normal 1.5): 4.2; Mucosal MPO activity (Mean) ([2]; 10 mg/kg/day perorally once a day for 7 days, non-treated 8.93, normal 0.48): 0.89
